In ChEMBL document CHEMBL1806482, “Flavans from Iris tenuifolia and their effects on β-amyloid aggregation and neural stem cells proliferation in vitro” (Bioorg Med Chem Lett, 2011):
The source made the active and inactive calls. The rule behind the calls is not given here.

Assays:
[1] = Inhibition of amyloid beta (1 to 40) aggregation after 30 mins by thioflavin T fluorescence assay
[2] = tested on: NSC; test: Induction of NSC proliferation assessed as ATP level; type: functional, cell-based

SMILES | inhibition [1] | Activity [2]
COc1cc(OC)c2c(c1)O[C@H]1C[C@@H]2Oc2c(O)cccc21 | 19.8% | inactive
O=C1CC(c2cccc(O)c2O)Oc2cc3c(c(O)c21)OCO3 (stereo not given) | 61.7% | Active
C[C@H]1COC2=C1C(=O)C(=O)c1c2ccc2c1CCCC2(C)C | 43.7% | –
